Source: patent US9402875B2, “Amidated dopamine neuron stimulating peptide restoration of mitochondrial activity” (University of Kentucky Research Foundation, priority 2006, dated 2016)
Ends that are not written are not given here.

Assays:
[1] = tested on: mitochondrial-associated genes in the substantia nigra; assay: Gene array analysis (Affymetrix) of substantia nigra after DNSP-11; type: in vivo, rat; details: 48 h after bilateral 30 μg
Method: Changes in expression of mitochondrial-associated genes in the substantia nigra (SN) of three young adult (5 month old) male F344 rats 48 hours following bilateral intranigral injections of DNSP-11 into the substantial nigra was assessed as follows.
A 3 μg/μl DNSP-11 peptide solution was prepared in citrate buffer and filter sterilized. Stereotaxic injections were made of 30 μg DNSP-11 in 10 ul citrate buffer into the substantia nigra on each side of the brain. Controls received […] injections of vehicle. Forty-eight hours later, the animals were euthanized, the brains quickly recovered and sectioned so that the bilateral SN could be dissected out as one block of tissue and snap frozen in liquid nitrogen. RNA was extracted from the SN samples for gene array analysis, which was conducted on Affymetrix Version II chips. A gene chip was run for each of the six rats: three bilateral vehicle recipients, three bilateral 30 μg DNSP-11 recipients.

MN9D cells = assay: Oxygen consumption rate (Seahorse XF-24); type: cell-based
Method: Real-time measurement of oxygen consumption rate (OCR) of intact DNSP-11-treated MN9D cells, in the presence and absence of Complex I toxins, rotenone 1-5 ηM or TaClo 100-150 μM, were performed utilizing the Seahorse XF-24 extracellular flux analyzer. This instrument allows the simultaneous measurement of the mitochondrial bioenergetics from […] cell culture samples, without the mitochondrial isolation (and thus higher quantities of sample) needed for the standard (lower throughput) Clark-type electrode chamber. Details regarding the methods used for the Seahorse analysis were recently described in detail (Sauerbeck et al., Journal of Neuroscience Methods 198:36-43 (2011) incorporated herein by reference).
Briefly, following sensor preparation, calibration, and dose optimization, the basal and maximal oxygen consumption rates (OCR) were measured in intact MN9D neuronal cells in the absence and presence of 1 μM DNSP-11. […] Following electron transport chain uncoupling by 100 nM FCCP to measure the maximal OCR, treatment of MN9D neurons with DNSP-11 had nearly a 60% increase (p<0.001) versus control.

MN9D dopaminergic cells = assay: TUNEL assay, protection against 6-OHDA toxicity; type: cell-based; details: 1 ng/mL for 1 hour before 100 μM 6-OHDA for 15 min; at 24 h
Method: MN9D Cell Cultures: The MN9D cell line has been described by Choi (1991) Brain Res. 552:67-76 and was a gift from Michael Zigmond. Cells were cultured in DMEM supplemented with 10% Fetal Bovine Serum (FBS, Hyclone), 50 U/mL penicillin and streptomycin. For experiments, the cells were plated on 24-well poly-D-lysine in DMEM with 1% (v/v) penicillin-streptomycin. The cells were grown at 37° C. in 5% CO2.
Terminal dUTP Nick-End Labeling (TUNEL) Assay in MN9D Cells: After treatment with DNSP-11, MN9D cells were fixed and labelled to assess degenerative nuclear changes as indicated by the extent of high-molecular weight DNA strand breaks. DNA fragmentation was detected by using steptavidin-horseradish peroxidise conjugate followed by the substrate diaminobenzidine (DAB) generating a colored precipitate. Ratios between apoptotic and total cells were determined (4 random fields/well; 4 wells/ group). Experiments were repeated 3 times.
To evaluate DNSP-11's neuroprotective properties, DNSP-11 was compared to GDNF in its protection against 6-OHDA-induced toxicity in the dopaminergic cell line, MN9D. MN9D dopaminergic cells were incubated for 1 hour with either citrate buffer (control), 1 ng/mL of DNSP-11 or GDNF prior to 100 μM 6-OHDA exposure for 15 min. […]

## PPEAPAEDRSL-NH2 [DNSP-11, PPEAPAEDRSL-amide]
[1]; vs control
  APP FOLD CHANGE: −1.08
  BACEI FOLD CHANGE: −1.09
  CASP3 FOLD CHANGE: 1.18
  CASP8 FOLD CHANGE: 1.25
  CAT FOLD CHANGE: 1.09
  COX6A2 FOLD CHANGE: 1.75
  COX6B1 FOLD CHANGE: 1.04
  COX17 FOLD CHANGE: 1.11
  GLRX2 FOLD CHANGE: 1.09
  GPX7 FOLD CHANGE: 1.19
  MAOB FOLD CHANGE: 1.13
  MAP2K4 FOLD CHANGE: −1.12
  MAPK9 FOLD CHANGE: −1.21
  MAPK10 FOLD CHANGE: −1.08
  NDUFA7 FOLD CHANGE: 1.07
  PARK7 FOLD CHANGE: 1.02
  PRDX5 FOLD CHANGE: 1.13
  PSEN1 FOLD CHANGE: 1.16
  TXN2 FOLD CHANGE: 1.10
[1]; P 0.015
  CAT catalase expression level, PEPTIDE: 2828.2
[1]; control 178.1, P 0.006
  CASP8 caspase 8 expression level, PEPTIDE: 219.4
[1]; control 183.8, P 0.015
  GPX7 glutathione peroxidase 7 expression level, PEPTIDE: 194.2
[1]; control 367.5, P 0.024
  CASP3 caspase 3 expression level, PEPTIDE: 421.4
[1]; control 510.6, P 0.016
  BACEI beta-site APP-cleaving enzyme 1 expression level, PEPTIDE: 451.6
[1]; control 520.6, P 0.014
  COX6A2 cytochrome c oxidase subunit Via polypeptide2 expression level, PEPTIDE: 814.1
[1]; control 552.8, P 0.008
  MAPK10 mitogen-activated protein kinase 10 expression level, PEPTIDE: 505.0
[1]; control 563.2, P 0.022
  PSEN1 presenilin 1 expression level, PEPTIDE: 673.5
[1]; control 930.0, P 0.007
  MAPK9 mitogen-activated protein kinase 9 expression level, PEPTIDE: 770.7
[1]; control 1378.5, P 0.010
  TXN2 thioredoxin 2 expression level, PEPTIDE: 1511.9
[1]; control 1974.2, P 0.012
  MAOB monoamine oxidase B expression level, PEPTIDE: 2199.8
[1]; control 2017.8, P 0.025
  COX17 cytochrome c oxidase assembly homolog expression level, PEPTIDE: 2326.1
[1]; control 2744.4, P 0.043
  MAP2K4 mitogen-activated protein kinase kinase 4 expression level, PEPTIDE: 2422.4
[1]; control 2943.0, P 0.046
  NDUFA7 NADH dehydrogenase (ubiquinone) 1 alpha subcomplex, 7 expression level, PEPTIDE: 3125.4
[1]; control 3472.2, P <0.001
  GLRX2 glutaredoxin 2 expression level, PEPTIDE: 3618.7
[1]; control 4790.1, P 0.020
  PRDX5 peroxiredoxin 5 expression level, PEPTIDE: 5569.8
[1]; control 5159.4, P 0.032
  PARK7 DJ-1 expression level, PEPTIDE: 5299.2
[1]; control 7536.6, P 0.044
  COX6B1 cytochrome c oxidase subunit Vib polypeptide 1 expression level, PEPTIDE: 7869.7
[1]; control 10117.2, P 0.006
  APP amyloid beta (A4) precursor protein expression level, PEPTIDE: 9734.4
MN9D cells; 1 nM, 2.5 nM and 5 nM rotenone
  basal and maximal OCRs, protection from rotenone: protection
MN9D cells; 1 μM DNSP-11
  basal OCR vs control treatment: no significant effect
  reserve respiratory capacity (ratio maximal/basal OCR): significantly increases
MN9D cells; 1 μM DNSP-11, uncoupling by 100 nM FCCP, p<0.001
  maximal OCR, increase versus control: ~60%
MN9D cells; 100 μM and 150 μM TaClo
  basal and maximal OCRs, protection from TaClo: protection
MN9D dopaminergic cells
  percent of TUNEL positive cells: significant reduction
